Experiments:
Type in all cases: cell-based
TGF-β1 = assay: Levels of latent and activated TGF-β1 in extracellular media of smooth muscle cell cultures (ELISA); conditions: human aortic smooth muscle cells, 0.2% foetal calf serum; after 14 hours of contact with the cells
Procedure: The effect of the compounds of formula (I) upon the increase of the levels of TGF-β1 was evaluated with the aid of tests upon the smooth muscle cells, as well as upon the blood levels and the diaphragms in the rat after administration of the representative compounds of the invention.
Both latent TGF-β1 and activated TGF-β1 were determined on the smooth muscle cells by incubation with hydrochloric acid.
40,000 smooth muscle cells isolated from the human aorta (supplier: CLONETICS) are placed, in a […], in a medium containing 2 ml of DMEM (Dulbecco Modified Eagle Medium containing 4.5 g/l of glucose, 3.7 g/l of NaHCO3 and not containing any L-glutamine or Na-pyruvate). […]
Dishes containing cells are prepared as described in Preparation 1. […] The activated TGF-β1 is determined directly in the supernatants of the culture, but the latent TGF-β1 is determined after activation. […]
Dishes containing cells are prepared as in PREPARATION 1. The levels of TGF-β1 are measured as described in PREPARATION 2. The levels of activated TGF-β1 are measured in the extracellular media in the presence of SR 57746A after 1, 3, 14, 24 and 48 hours and 7 days of contact with the cells, in comparison with the controls (0.2% foetal calf serum and 20% foetal calf serum) by the method described in PREPARATION 2.

[1] = tested on: smooth muscle cells isolated from the human aorta; assay: Anti-apoptotic effect, apoptosis induced by NGF (oligonucleosome ELISA); conditions: NGF 0.01 ng/ml to 100 ng/ml; after 24 hours of contact with the cells
Procedure: (§1) The anti-apoptotic activity was measured on the same cells vis-à-vis the pro-apoptotic activity of a deprivation in serum or after the addition of toxic compounds such as vincristine or growth factors such as nerve growth factor (NGF) with the aid of a specific ELISA (enzyme-linked immunosorbent assay) determination kit which detects the presence of oligonucleosomes the presence of which inside the cells is a specific marker of programmed cell death (apoptosis), according to the method described by Del Bino G. et al., (Experimental Cell Research, 193, 27, 1991 and 195, 485, 1991) or Darzynkiewicz A et al., (Cytometry, 13, 795, 1992).
(§2) 40,000 smooth muscle cells isolated from the human aorta (supplier: CLONETICS) are placed, in a […], in a medium containing 2 ml of DMEM (Dulbecco Modified Eagle Medium containing 4.5 g/l of glucose, 3.7 g/l of NaHCO3 and not containing any L-glutamine or Na-pyruvate). 20% v/v of foetal calf serum which was desupplemented for 30 min at […] , 4 mM L-glutamine, 50 U/ml of penicillin and 50 μg/ml of streptomycin are added. The cells are left in this medium for a growth period of three days before submitting them to tests according to the examples given further on.
(§3) Dishes containing the cells are prepared as in PREPARATION 1. Apoptosis is induced by three different methods:
b) by adding increasing doses of NGF (0.01 ng/ml to 100 ng/ml) to the medium described in PREPARATION 1;
(§4) By an ELISA determination test of the mono- and oligo-nucleosomes associated with cytoplasmic histones after washing and cellular lysis, the effects of the compounds of the invention upon the apoptosis are measured after 24 hours of contact with the cells in comparison with the levels of apoptosis obtained in the absence of products (maximum apoptosis level) or in the presence of 20% foetal calf serum (minimum apoptosis level).
Dishes containing cells are prepared as in PREPARATION 1. Apoptosis is induced according to method b) of PREPARATION 4. The apoptosis levels are measured after 24 hours of contact with the cells by the method described in PREPARATION 4; the same controls as in PREPARATION 4 are used.

[2] = tested on: smooth muscle cells isolated from the human aorta; assay: Anti-apoptotic effect, apoptosis induced by vincristine (oligonucleosome ELISA); conditions: Vincristin 0.1 pg/ml to 10 ng/ml; after 24 hours of contact with the cells
Procedure: as §1, §2, §3
c) by adding increasing doses of Vincristin (0.1 pg/ml to 10 ng/ml) to the medium described in PREPARATION 1.
as §4
Dishes containing cells are prepared as described in PREPARATION 1. Apoptosis is induced according to method c) of PREPARATION 4. The levels of apoptosis are measured after 24 hours of contact with the cells by the method described in PREPARATION 4; the same controls as in PREPARATION 4 are used.

Row | Structure (SMILES) | levels of activated TGF-β1 in the extracellular media (TGF-β1) | pro-apoptotic effect of NGF [1] | pro-apoptotic effect of vincristine [2]
1 | FC(F)(F)c1cccc(C2=CCN(CCc3ccc4ccccc4c3)CC2)c1 [SR 57746, 1-(2-naphth-2-ylethyl)-4-(3-trifluoromethylphenyl)-1,2,3,6-tetrahydropyridine] | significant increase | significantly inhibit | significantly inhibit
2 | CCc1ccc(CCN2CC=C(c3cccc(C(F)(F)F)c3)CC2)cc1CC [compound A, 1-[2-(3,4-diethylphenyl)ethyl]-4-(3-trifluoromethylphenyl)-1,2,3,6-tetrahydropyridine] |  | significantly inhibit | significantly inhibit
3 | O=C(CN1CC=C(c2cccc(C(F)(F)F)c2)CC1)c1ccc(-c2ccccc2)cc1 [compound B, 1-[2-(biphenyl-4-yl)-2-oxoethyl]-4-(3-trifluoromethylphenyl)-1,2,3,6-tetrahydropyridine] |  | significantly inhibit | significantly inhibit
4 | FC(F)(F)c1cccc(C2=CCN(CCc3ccc(-c4ccccc4)cc3)CC2)c1 [compound C, 1-[2-(biphenyl-4-yl)ethyl]-4-(3-trifluoromethylphenyl)-1,2,3,6-tetrahydropyridine] |  | significantly inhibit | significantly inhibit
5 | FC(F)(F)c1cccc(C2=CCN(CCc3ccc4cc5c(cc4c3)OCO5)CC2)c1 [compound D, 1-[2-(6,7-methylenedioxynaphth-2-yl)ethyl]-4-(3-trifluoromethylphenyl)-1,2,3,6-tetrahydropyridine] |  | significantly inhibit | significantly inhibit
6 | FC(F)(F)c1cccc(C2=CCN(CCc3ccc(C4=CCCCC4)cc3)CC2)c1 [compound E, 1-[2-(4-cyclohexenylphenyl)ethyl]-4-(3-trifluoromethylphenyl)-1,2,3,6-tetrahydropyridine] |  | significantly inhibit | significantly inhibit
7 | FC(F)(F)c1ccccc1C1=CCN(CCc2ccc(-c3ccccc3)cc2)CC1 [compound F, 1-[2-(biphenyl-4-yl)ethyl]-4-(2-trifluoromethylphenyl)-1,2,3,6-tetrahydropyridine] |  | significantly inhibit | significantly inhibit

Reference: US6693118B2, “Use of 4-substituted tetrahydropyridines for the manufacture of medicaments acting upon TGF-β1” (Sanofi-Synthelabo, priority 1997, dated 2004)
